Values quoted from earlier work in patent publication US11648211B2, “Nanoencapsulated combination drug formulations” (priority 2019, dated 2023).
Structures can show the parent of a compound that is named as a salt. Where two headings read alike, the source gives them in different places.

What was measured:
[1] = tested on: SARS-2-S-driven entry into Caco-2 cells
[2] = tested on: SARS-2-S-driven entry into Vero-TMPRSS2 cells
[3] = in vivo, ip, 5 mg/kg
[4] = human, in vivo
[5] = in vivo
advanced breast cancer = conditions: in vivo

CN(C)C(=O)COC(=O)Cc1ccc(OC(=O)c2ccc(NC(=N)N)cc2)cc1 [Camostat mesylate]
SARS-2-S-driven entry [1]: partially blocked
SARS-2-S-driven entry [2]: partially blocked

CCc1cnn2c(NCc3ccc[n+]([O-])c3)cc(N3CCCC[C@H]3CCO)nc12 [DCB, Dinaciclib]
half-life [3]: 15 min
half-life [4]: 3.3 h
patients with neutropenia [4]: 43%
patients with thrombocytopenia [4]: 3%
patients with grade 3-4 toxicities [5]: 60%
grade 3-4 febrile neutropenia (advanced breast cancer): 11%
grade 3-4 increased transaminase levels (advanced breast cancer): 11%
grade 3-4 leukopenia (advanced breast cancer): 21%
grade 3-4 neutropenia (advanced breast cancer): 47%

Cn1ncnc1[C@H]1c2n[nH]c(=O)c3cc(F)cc(c23)N[C@@H]1c1ccc(F)cc1 [TLZ, Talazoparib]
patients with anemia, low RBC count (oral): 52%
patients with leukopenia, low WBC count (oral): 17%
patients with thrombocytopenia, low PLT count (oral): 27%
patients with neutropenia (patients treated with TLZ): 35%
